The subject of the test is isolated portion of the phytopathogen with a reduced sensitivity (Plasmopara viticola). Put plainly: Control of Plasmopara viticola on grapes, preventive leaf application (greenhouse test), isolate with reduced sensitivity. Format: in vivo. The settings on record: fungicide alone at 0.05 ppm, scale 100 to 0. The procedure:
Efficacy of Compound Nr. 1 Mixed with Another Fungicidal Compound in the Control of Plasmopara viticola on Grapes in Preventive Leaf Application (Greenhouse Test) Table 3.
Leaves of cultivar Dolcetto grape vines, cultivated in vases, in a conditioned environment (20±1° C., 70% relative humidity) are treated by spraying both sides of the leaves with compound Nr. 1 mixed with another fungicide dispersed in a hydroacetone solution at 10% by volume of acetone containing 0.3% of tween 20.
After remaining 24 hours in a conditioned environment, the plants are infected on the lower side with an aqueous suspension of spores of Plasmopara viticola (200,000 spores per cm^3).
The plants are kept in a humidity saturated environment, at 21° C., for the incubation period of the fungus and, at the end of this period (7 days), the fungicidal activity is evaluated according to a percentage evaluation scale from 100 (healthy plant) to 0 (completely infected plant).
From the data indicated in Table 3, the synergic effect of the mixtures, consisting of compound Nr. […]
When the fungicidal activity experimentally evaluated is greater than the value of E, this activity should be considered as a synergic effect.

As to `COCC(=O)N(c1c(C)cccc1C)C(C)C(=O)OC` (stereo not shown) [Metalaxyl, metalaxyl], the “Activity (y)” value was determined as 12.

Source of the values: patent US8637058B2, “Compositions based on cupric salts, cupric salts and their use for controlling phytopathogens” (priority 2001, dated 2014).
